System: HUVEC/MSC spheroids viability
Test: Human HUVEC/MSC cell line growth inhibition [KRAS2];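 as to viability, T/C: percent of DMSO vehicle control luminescence so 100% = untreated viability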
Conditions: for IC50: curve of first compound; for viability, T/C: stronger effect = lower value
In short: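 Endothelial cells (HUVEC) plus mesenchymal stem cells, cultured at 37 °C/5% CO2 and assembled into spheroids without cancer cells, served as a stromal control. Drug pairs and single agents spanned half-log ranges anchored to clinical Cmax.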

SMILES: COC(=O)c1ccc2c(C(=Nc3ccc(N(C)C(=O)CN4CCN(C)CC4)cc3)c3ccccc3)c(O)[nH]c2c1 + CC1OCC2(CCN(c3cnc(Sc4ccnc(N)c4Cl)c(N)n3)CC2)C1N
- IC50 (second compound 0.0316 µM): 1550 nM
- IC50 (second compound 0.1 µM): 1180 nM
- IC50 (second compound 0.316 µM): 620 nM
- IC50 (second compound 1 µM): 623 nM
- IC50 (second compound 3.16 µM): 528 nM
- IC50 (second compound 10 µM): 353 nM
- viability, T/C (second compound 0.0316 µM, first compound 0.0316 µM): 112%
- viability, T/C (second compound 0.0316 µM, first compound 0.1 µM): 111%
- viability, T/C (second compound 0.0316 µM, first compound 0.316 µM): 89.7%
- viability, T/C (second compound 0.0316 µM, first compound 1 µM): 52.6%
- viability, T/C (second compound 0.0316 µM, first compound 3.16 µM): 38.8%
- viability, T/C (second compound 0.0316 µM, first compound 10 µM): 2.26%
- viability, T/C (second compound 0.1 µM, first compound 0.0316 µM): 94.1%
- viability, T/C (second compound 0.1 µM, first compound 0.1 µM): 106%
- viability, T/C (second compound 0.1 µM, first compound 0.316 µM): 77%
- viability, T/C (second compound 0.1 µM, first compound 1 µM): 47.8%
- viability, T/C (second compound 0.1 µM, first compound 3.16 µM): 32%
- viability, T/C (second compound 0.1 µM, first compound 10 µM): 0.33%
- viability, T/C (second compound 0.316 µM, first compound 0.0316 µM): 108%
- viability, T/C (second compound 0.316 µM, first compound 0.1 µM): 82%
- viability, T/C (second compound 0.316 µM, first compound 0.316 µM): 73.4%
- viability, T/C (second compound 0.316 µM, first compound 1 µM): 34.9%
- viability, T/C (second compound 0.316 µM, first compound 3.16 µM): 16.6%
- viability, T/C (second compound 0.316 µM, first compound 10 µM): 1.89%
- viability, T/C (second compound 1 µM, first compound 0.0316 µM): 74.3%
- viability, T/C (second compound 1 µM, first compound 0.1 µM): 72.8%
- viability, T/C (second compound 1 µM, first compound 0.316 µM): 74.2%
- viability, T/C (second compound 1 µM, first compound 1 µM): 33.4%
- viability, T/C (second compound 1 µM, first compound 3.16 µM): 0.59%
- viability, T/C (second compound 1 µM, first compound 10 µM): 0.29%
- viability, T/C (second compound 3.16 µM, first compound 0.0316 µM): 69.4%
- viability, T/C (second compound 3.16 µM, first compound 0.1 µM): 73.3%
- viability, T/C (second compound 3.16 µM, first compound 0.316 µM): 64.5%
- viability, T/C (second compound 3.16 µM, first compound 1 µM): 30.9%
- viability, T/C (second compound 3.16 µM, first compound 3.16 µM): 0.39%
- viability, T/C (second compound 3.16 µM, first compound 10 µM): 0.29%
- viability, T/C (second compound 10 µM, first compound 0.0316 µM): 63.5%
- viability, T/C (second compound 10 µM, first compound 0.1 µM): 61.1%
- viability, T/C (second compound 10 µM, first compound 0.316 µM): 53.8%
- viability, T/C (second compound 10 µM, first compound 1 µM): 14.7%
- viability, T/C (second compound 10 µM, first compound 3.16 µM): 0.37%
- viability, T/C (second compound 10 µM, first compound 10 µM): 0.38%

From PubChem BioAssay AID2060912 (Molecular Pharmacology Branch, DTP, NCI, 2025)
